Experimental data published in US4939177A, “Use of avarol for the control of AIDS and ARC” (Merz + Co. GmbH & Co., priority 1986, dated 1990).
Read-outs that look alike come from different tables or passages of the source.

Legend:
[1] = system: H9-cells infected with HTLV-III; experiment: Growth of HTLV-III infected H9 cells; format: cell-based, human; details: for Cell Concentration: infected H9 cells, four days, controls infected 0.5, uninfected 1.3
Procedure: For this, the H9 cell line was used, it consisting of a cloned OKT4+ T-cell line in which the AIDS virus propagates (M. Popovic, M. G. Sarngadharan, E. Reed and R. C. Gallo; Science 224, 497-500 (1984)).
(§1) H9-cells (M. Popovic, M. G. Sarngadharan, E. Reed, R. C. Gallo, Science: 224, 1984, 497-500) were treated with Polybren® (hexadimethrinbromide available on the market; 2 μg/ml) for 30 minutes at 37° C., washed free of Polybren and infected with 2×10^8 HTLV-III virus particles (isolated from H9 cell cultures by the method of M. Popovic; see above) per 4×10^5 H9 cells. Some assays which were not treated with drugs were used as positive controls, while different concentrations of the compound to be tested (avarone or avarol and their derivatives) were added to the test samples. The HTLV-III reverse transcriptase activity of these cultures was analyzed in the manner described above.
H9-cells as well as H9-cells infected with HTLV-III were used in a concentration of 0.2×10^6 cells/ml of culture medium for the inoculating of a culture medium. After incubation for four days, the density of the H9-cells was 1.3×10^6 cells/ml, while the density of the H9-cells infected with HTLV-III was only 0.5×10^6 cells/ml; these two values formed the control values.
Thereupon samples of H9-HTLV-III cells, 0.2×10^6 cells/ml, were treated for four days with different concentrations of avarol.

HTLV-III p15 = HTLV-III p15 expression in H9-HTLV-III cells, immunofluorescence; format: cell-based; details: for Expression of p15 (in %): none = 100
Procedure: as §1
The immunofluorescence assays were carried out on methanol:acetone (1:1)-fixed cells with the use of monoclonal antibodies (from the mouse) against HTLV-III p15 (core protein of MW=15,000) and p24 (core protein of MW=24,000). Both of these proteins are marker proteins which indicate the presence of virus particles in the cells. The HTLV-III Infected cells with or without drug treatment were fixed on toxoplasmosis slides. After fixation with methanol-acetone (1:1) for 30 minutes at room temperature, the slides were stored in sealed plastic containers at -20° C. until use. The monoclonal antibodies were added to the cells, incubated at room temperature in a moisture chamber for one hour and washed for two hours with PBS (phospate buffered saline) containing 0.25% Triton X-100. The cells were then treated for one hour with fluorescein (FITC) labeled goat anti-mouse IgG (Capell Labs.) and washed overnight with PBS buffer containing 0.25% Triton X-100. Fifty percent glycerin was added to the slides and the cell fluorescence was determined with a Zeiss fluorescence microscope.
When the target H9-cells were treated with the HTLV-III isolate and cultivated without the compounds to be tested, the H9-cells were infected and, as established by indirect immunofluorescence assay, there was expression of the p24 and p15 protein. After incubation of the H9-HTLV-III cells with the compounds to be tested, a practically complete protective effect was observed.

HTLV-III p24 = format: cell-based; details: for Expression of p24 (in %): none = 100
[2] = system: human peripheral blood lymphocytes (IgM); experiment: In vitro IgM production by peripheral blood lymphocytes; format: cell-based
Procedure: Human peripheral blood lymphocytes (6×10^5 cells/ml) were cultured in the presence of 0 to 2 μg/ml of pokeweed mitogen (PWM; Sigma no. 9379) in Dulbeccos minimum essential medium, supplemented with 20% fetal calf serum, for 6 days. The assays were performed in a final volume of 200 μl in microtiter plates (Dynatech; M129B) (Muller et al., Eur. J. Cancer Clin. Oncol. 22: 473-476; 1986). Avarol in a concentration range of 0-3 μg/ml was added at time 0 or 3 days after starting the culture. The supernatants were harvested and assayed for human immunoglobulin content.
The culture supernatants were assayed by the enzyme-linked immunosorbent assay (Houtman et al., Clin. Exp. Immunol. 62: 696-704; 1985) using anti-human IgG (Dakopatts, Hamburg; P214) and anti-human IgM (Dakopatts; P215). These antibodies were conjugated to peroxidase. Bound enzyme activity was measured using 2,2'-azino-bis(3-ethylbenzthiazolinesulfonic acid) (Sigma no. A-1888) as substrate.

[3] = system: DTH to oxazolone in NMRI mice; experiment: Contact allergy to oxazolone; format: in vivo, mouse; details: 3-30 mg/kg i.p., day -1 to +2 or day +6 to +8, P>0.05
Procedure: Allergic contact dermatitis against oxazolone was produced according to the method of Asherson and Ptak (Immunol. 15: 405-416; 1968) as well as those of Bure and Degrand (Agents and Actions 9: 534; 1979). Male NMRI mice (20-22 g; 10/group) were sensitized with 100 μl of a 2% oxazolone in acetone solution onto the shaved abdomen (day 0). Animals were treated with avarol (i.p.) daily from day -1 to +2 or from day +6 to +8; control group was treated with deoxymethasone (Casella-Hoechst) as a standard per os at a daily dose of 30 mg/kg for the same period of time as for avarol. Seven days after sensitization 10 μl of a 3% oxazolane (this concentration was previously found to give more reproducible results than the lower 2% concentration) solution were topically applied onto the inner side of one ear, whereas the other ear received only acetone. […] Treated groups were compared with controls using the U-test.

[4] = Chemical nature and biological activity of radioactive product in rat blood (HPLC; L5178y system); format: in vivo; details: iv, after circulation in the body for 22 hours, read-out: modification to a biologically-inactive form
Procedure: These concentrations were determined on the basis of radioactivity. Moreover, the chemical nature of the radioactive product was identified by high-pressure liquid chromatography and found to consist of over 90% of Avarol. In addition, the biological activity of the compound in the blood was determined after extraction with ethyl acetate and estimated in the L5178y cell system in vitro (Muller, W.E.G. et al.; Comp. Biochem. Physiol. 80C, 47-52; 1985). Using this system, the biological activity of the compound, present in the blood, was determined and converted on a gram basis. Using this approach the concentration in the blood was only 5-15% lower than that determined on the basis of radioactivity.

herpes simplex virus = details: in vitro, cultures of herpes simplex virus; cited from earlier work

## CC1=CCC[C@H]2[C@](C)(Cc3cc(O)ccc3O)[C@@H](C)CC[C@]12C [Avarol, 2-[(1R)-1,2,3,4,4a,7,8,8aα-octahydro-1β,2β,4aβ,5-tetramethyl-1-naphthylmethyl]-1,4-benzenediol]
[1]; about 0.01 μg/ml
  growth rate of H9-HTLV-III cells: increase the growth rate of H9-HTLV-III cells to values which lie within the range of the control
[1]; 0.1 μg/ml
  Cell Concentration: 1.42e+06 mL⁻¹
[1]; 1 μg/ml
  Cell Concentration: 1.09e+06 mL⁻¹
HTLV-III p15; 0.1 μg/ml
  Expression of p15 (in %): 37%
HTLV-III p15; 1 μg/ml
  Expression of p15 (in %): 12%
HTLV-III p15; 5 μg/ml
  Expression of p15 (in %): 12%
HTLV-III p15; H9-HTLV-III cells
  expression of HTLV-III protein p15, in words: significant reduction
HTLV-III p24; 0.1 μg/ml
  Expression of p24 (in %): 28%
HTLV-III p24; 1 μg/ml
  Expression of p24 (in %): 14%
HTLV-III p24; 5 μg/ml
  Expression of p24 (in %): 14%
HTLV-III p24; H9-HTLV-III cells
  expression of HTLV-III protein p24, in words: significant reduction
[2]; 0.3 or 1 μg/ml, irrespective of PWM
  IgM production, in words: significant increase
[2]; avarol 0.3 μg/ml, PWM +, 0 to 6 days
  IgM synthesized: 20.4 ± 5.1 µg/mL
[2]; avarol 0.3 μg/ml, PWM +, 3 to 6 days
  IgM synthesized: 24.7 ± 5.6 µg/mL
[2]; avarol 0.3 μg/ml, PWM -, 0 to 6 days
  IgM synthesized: 14.7 ± 3.4 µg/mL
[2]; avarol 0.3 μg/ml, PWM -, 3 to 6 days
  IgM synthesized: 14.2 ± 3.3 µg/mL
[2]; avarol 1.0 μg/ml, PWM +, 0 to 6 days
  IgM synthesized: 23.5 ± 5.5 µg/mL
[2]; avarol 1.0 μg/ml, PWM +, 3 to 6 days
  IgM synthesized: 25.6 ± 5.9 µg/mL
[2]; avarol 1.0 μg/ml, PWM -, 0 to 6 days
  IgM synthesized: 15.6 ± 4.0 µg/mL
[2]; avarol 1.0 μg/ml, PWM -, 3 to 6 days
  IgM synthesized: 15.9 ± 4.2 µg/mL
[2]; avarol 3.0 μg/ml, PWM +, 0 to 6 days
  IgM synthesized: 10.5 ± 2.6 µg/mL
[2]; avarol 3.0 μg/ml, PWM +, 3 to 6 days
  IgM synthesized: 11.7 ± 2.9 µg/mL
[2]; avarol 3.0 μg/ml, PWM -, 0 to 6 days
  IgM synthesized: 8.1 ± 1.8 µg/mL
[2]; avarol 3.0 μg/ml, PWM -, 3 to 6 days
  IgM synthesized: 8.4 ± 1.9 µg/mL
[2]; higher avarol concentrations
  IgM production, in words: turned to normal values
[3]
  influence on DTH to oxazolone, in words: did not influence significantly
[4]
  metabolised at 22 h: ≤ 15%
Herpes simplex virus
  virostatic action: certain virostatic action in vitro
